Measured values as given in patent publication US8722649B2, “Alpha-chloro and alpha-bromo phosphonate analogs of lysophosphatidic acid and methods of making and using thereof” (University of Utah Research Foundation, priority 2007, dated 2014).
Read-outs that look alike come from different tables or passages of the source.

Columns and labels:
human LPA1 = biological target: T1, human LPA1 (Homo sapiens, UniProt Q92633); test: Ca2+ mobilization assay, LPA1; type: cell-based; conditions: for EC50: RH7777 cells stably expressing LPA1, agonist mode; for IC50 / Ki: antagonist mode vs 200 nM LPA; for IC50: PA = partial antagonist, read-out: LPA1 IC50; for Ki: read-out: LPA1 (Ki)
T1 construct: expressed in transfected cells
Procedure: (§1) Receptor activation using Ca^2+ mobilization assay for diastereomers of 1 (also represented as 19b). The rat hepatoma (RH7777) cell lines individually expressing either LPA1, LPA2, LPA3 or LPA5 receptors and Chinese hamster ovary (CHO) cell line were analyzed to examine agonism and antagonism. […] CHO cells stably expressing either vector or LPA4 were kindly gifted from Dr. Shimizu (University of Tokyo, Tokyo, Japan).
(§2) Stable transformants of LPA1/2/3 receptors. RH7777 cells stably expressing each receptor were plated onto poly-L-lysine (PLL) (0.1 mg/mL)-coated black-wall clear-bottom 96-well plates (Corning Incorporated Life Sciences, Acton, Mass.) at a density of 5×10^4 cells/well and cultured overnight. The following day, the culture medium was replaced with modified Krebs buffer (120 mM NaCl, 5 mM KCl, 0.62 mM MgSO4, 1.8 mM CaCl2, 10 mM HEPES, 6 mM glucose, pH 7.4), and the cells were serum starved for 6 h. Subsequently, cells were loaded with Fura-2 AM (Invitrogen, Carlsbad, Calif.) for 35 min in modified Krebs buffer containing 2% (v/v) pluronic acid.
(§3) After incubating the cells with Fura-2 AM, the cells were rinsed with Krebs buffer and changes in the intracellular Ca^2+ concentration were monitored by determining the ratio of emitted light intensities at 520 nm in response to excitation at 340 and 380 nm using FLEXstation II (Molecular Devices, Sunnyvale, Calif.). Each well was monitored for 80-120 sec. For testing agonist activity of the compounds, the test compounds were added automatically after 15 sec of baseline measurement. To determine antagonist properties, varying concentrations of the compounds were mixed with a constant concentration of LPA and responses were monitored. Each test was performed in quadruplicate. EC50, IC50, and Ki values were calculated by fitting a sigmoid function to data points with the nonlinear curve-fitting feature of KaleidaGraph (Synergy Software, Essex Junction, Vt.).
Receptor activation using Ca^2+ mobilization assay. The assay for mobilization of intracellular Ca^2+ was performed as described. Briefly, rat hepatoma RH7777 cells stably expressing human LPA1, LPA2, or LPA3, and CHO cells stably expressing LPA4, were loaded with Fura-2 AM (Molecular Probes). Using a FLEXStation (Molecular Devices, Sunnyvale, Calif.), changes in intracellular Ca^2+ concentration were monitored. Ligand-induced changes in fluorescence were monitored for 80-120 seconds. Ca^2+ transients were quantified automatically by calculating the difference between maximum and baseline ratio values for each sample. To determine antagonist properties, different concentrations of each analogue were mixed with either palmitoyl (16:0) or oleoyl (18:1) LPA (200 nM for LPA1 and LPA3, 10 nM for LPA2, and 400 nM for LPA4) (Avanti Polar Lipids, Inc., […], Ala.) and responses were recorded. Each test was performed in quadruplicate. EC50, IC50, and Ki values were calculated as described. The ligand properties of the compounds were evaluated using Ca^2+ mobilization assay for assessing the activation/inhibition of LPA1, LPA2, and LPA3 expressed in RH7777 cells and LPA4 expressed in CHO cells. Table l illustrates calcium responses elicited through the activation of human LPA1, LPA2, LPA3 and LPA4 receptors. These cell lines have been used extensively for the characterization of LPA GPCR ligands because RH7777 cells are intrinsically unresponsive to LPA and CHO cells show minimal endogenous responses to LPA unless transfected with LPA4.

human LPA2 = biological target: T2, human LPA2 (Homo sapiens, UniProt Q9HBW0); test: Ca2+ mobilization assay, LPA2; type: cell-based; conditions: for EC50: RH7777 cells stably expressing LPA2, agonist mode; for IC50: read-out: LPA2 IC50; for Ki: read-out: LPA2 (Ki)
T2 construct: expressed in transfected cells
Procedure: as §1, §2
as §3, with “To determine antagonist properties, varying concentrations of the compounds were mixed with a constant concentration of LPA and responses were monitored.” left out
(§4) Receptor activation using Ca^2+ mobilization assay. The assay for mobilization of intracellular Ca^2+ was performed as described. Briefly, rat hepatoma RH7777 cells stably expressing human LPA1, LPA2, or LPA3, and CHO cells stably expressing LPA4, were loaded with Fura-2 AM (Molecular Probes). Using a FLEXStation (Molecular Devices, Sunnyvale, Calif.), changes in intracellular Ca^2+ concentration were monitored. Ligand-induced changes in fluorescence were monitored for 80-120 seconds. Ca^2+ transients were quantified automatically by calculating the difference between maximum and baseline ratio values for each sample. […] Each test was performed in quadruplicate. EC50, IC50, and Ki values were calculated as described. The ligand properties of the compounds were evaluated using Ca^2+ mobilization assay for assessing the activation/inhibition of LPA1, LPA2, and LPA3 expressed in RH7777 cells and LPA4 expressed in CHO cells.

human LPA3 = biological target: T3, human LPA3 (Homo sapiens, UniProt Q9UBY5); test: Ca2+ mobilization assay, LPA3; type: cell-based; conditions: for Emax: Emax = (maximal efficacy of compound/maximal efficacy of LPA 18:1) × 100; for EC50: RH7777 cells stably expressing LPA3, agonist mode
T3 construct: expressed in transfected cells
T3 sequence (Q9UBY5 1-353): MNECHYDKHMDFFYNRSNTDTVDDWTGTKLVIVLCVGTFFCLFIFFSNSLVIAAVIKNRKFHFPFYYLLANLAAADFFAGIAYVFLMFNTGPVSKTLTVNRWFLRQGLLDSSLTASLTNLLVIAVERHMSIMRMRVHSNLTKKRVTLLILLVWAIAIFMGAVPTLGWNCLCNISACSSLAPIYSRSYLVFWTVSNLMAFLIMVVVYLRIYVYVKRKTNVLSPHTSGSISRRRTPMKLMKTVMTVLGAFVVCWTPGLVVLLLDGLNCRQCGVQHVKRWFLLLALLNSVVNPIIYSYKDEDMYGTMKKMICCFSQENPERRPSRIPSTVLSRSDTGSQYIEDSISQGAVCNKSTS
Procedure: as §1, §2
as §3, with “To determine antagonist properties, varying concentrations of the compounds were mixed with a constant concentration of LPA and responses were monitored.” left out
as §4

human LPA4 = biological target: T4, human LPA4 (Homo sapiens, UniProt Q99677); test: Ca2+ mobilization assay, LPA4 in CHO cells; type: cell-based; conditions: for EC50: CHO cells stably expressing LPA4, agonist mode
T4 construct: expressed in transfected cells
Procedure: as §1
Stable transformants of LPA4. CHO cells stably expressing either vector or LPA4 were plated on non-coated 96 well plates at a density of 4×10^4 cells/well and cultured overnight. The following day, cells were loaded with Fura-2 AM for 1 h in modified Krebs buffer containing 2% (v/v) pluronic acid and 2.5 mM probenecid.
as §3, with “To determine antagonist properties, varying concentrations of the compounds were mixed with a constant concentration of LPA and responses were monitored.” left out
as §4

recombinant ATX-HA = biological target: T5, recombinant ATX-HA (Homo sapiens, UniProt Q13822); test: Autotaxin assay (FS-3 hydrolysis); type: biochemical; conditions: 10.0 μM, FS-3 substrate, preliminary single-dose screen; for inhibition at 10 µM: read-out: Inhibition (%) of autotaxin (ATX) phosphodiesterase activity
T5 construct: HA
Procedure: Autotaxin Assay. This assay utilizes FS-3 (Echelon Biosciences, Inc. Salt Lake City, Utah) as substrate and recombinant ATX-HA. For analysis, 50 μl of ATX-HA (0.25 μg) in assay buffer (Tris 50 mM, NaCl 140 mM, KCl 5mM, CaCl2 1 mM, MgCl2 1 mM, pH 8.0) was mixed with 25 μl of FS-3 (1 μM final concentration in assay buffer) and 25 μl of test compound dissolved in assay buffer containing 1:1.5 bovine serum albumin in 96-well plate. FS-3 fluorescence was monitored using FLEXstation fluorescence plate reader at a time zero and after 2 hours of incubation at 37° C. at excitation and emission wavelengths of 485 nm and 538 nm, respectively. Data was normalized to the corresponding vehicle control and the mean±standard deviation of triplicate wells were expressed as percent ATX inhibition. IC50, and Ki values were calculated as described.

PPARγ = biological target: T6, PPARγ (Homo sapiens, UniProt P37231); test: PPARγ activation assay (PPRE-Acox-Rluc reporter in CV-1 cells); type: cell-based; conditions: 10 μM test analogue, 20 h
T6 construct: expressed in transfected cells; host or cells: CV-1 cells, transient (LipofectAMINE 2000)
T6 sequence (P37231 1-505): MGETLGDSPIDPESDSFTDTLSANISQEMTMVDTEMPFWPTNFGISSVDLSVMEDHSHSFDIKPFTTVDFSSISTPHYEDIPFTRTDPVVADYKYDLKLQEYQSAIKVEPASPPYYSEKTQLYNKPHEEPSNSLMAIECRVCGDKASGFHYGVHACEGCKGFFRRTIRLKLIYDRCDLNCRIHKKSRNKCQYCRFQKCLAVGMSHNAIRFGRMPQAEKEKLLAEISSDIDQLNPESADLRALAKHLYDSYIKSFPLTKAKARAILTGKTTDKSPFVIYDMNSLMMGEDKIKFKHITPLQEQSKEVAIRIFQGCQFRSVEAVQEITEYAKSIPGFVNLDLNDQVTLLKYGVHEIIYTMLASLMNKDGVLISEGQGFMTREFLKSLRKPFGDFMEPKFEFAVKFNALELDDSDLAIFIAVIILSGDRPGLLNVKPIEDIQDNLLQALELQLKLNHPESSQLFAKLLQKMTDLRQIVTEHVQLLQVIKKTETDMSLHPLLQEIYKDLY
Procedure: PPARγ activation assay. PPARγ activation was performed using CV-1 cells transfected with an acyl-coenzyme A oxidase-luciferase (PPRE-Acox-Rluc) reporter gene construct as previously reported. Briefly, CV-1 cells were plated in 96-well plates at a density of 1×10^4 cells per well in Dulbecco's modified Eagle's medium supplemented with 10% fetal bovine serum. The next day, the cells were transiently transfected with 125 ng of pGL3-PPRE-Acox-Rluc, 62.5 ng of pcDNA3.1 PPARγ, and 12.5 ng of pSV-β-galactosidase (Promega) using LipofectAMINE 2000 (Invitrogen). Twenty-four hours after transfection, cells were treated with OptiMEM (Invitrogen) containing 10 μM Rosiglitazone or 10 μM of the test analogue dissolved in DMSO for 20 h. Luciferase and β-galactosidase activities were measured with Steady-Glo® Luciferase Assay System (Promega) and the Galacto-Light Plus™ system (Applied Biosystems), respectively. Samples were run in quadruplicate and the mean ±standard errors were calculated. Data are representative of at least two independent transfections.

[1] = antagonist mode vs 10 nM LPA, PA = partial antagonist

T4 sequence (Q99677 whole entry): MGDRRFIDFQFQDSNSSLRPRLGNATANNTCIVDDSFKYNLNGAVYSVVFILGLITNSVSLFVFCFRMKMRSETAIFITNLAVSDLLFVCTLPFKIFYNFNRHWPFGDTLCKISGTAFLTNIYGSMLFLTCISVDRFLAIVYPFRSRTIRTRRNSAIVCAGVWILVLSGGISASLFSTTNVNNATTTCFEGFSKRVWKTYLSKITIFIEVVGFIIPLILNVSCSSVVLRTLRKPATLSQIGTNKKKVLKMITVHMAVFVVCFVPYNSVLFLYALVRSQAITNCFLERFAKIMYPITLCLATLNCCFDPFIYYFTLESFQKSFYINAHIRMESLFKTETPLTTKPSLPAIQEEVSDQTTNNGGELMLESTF
T1 sequence (Q92633 whole entry): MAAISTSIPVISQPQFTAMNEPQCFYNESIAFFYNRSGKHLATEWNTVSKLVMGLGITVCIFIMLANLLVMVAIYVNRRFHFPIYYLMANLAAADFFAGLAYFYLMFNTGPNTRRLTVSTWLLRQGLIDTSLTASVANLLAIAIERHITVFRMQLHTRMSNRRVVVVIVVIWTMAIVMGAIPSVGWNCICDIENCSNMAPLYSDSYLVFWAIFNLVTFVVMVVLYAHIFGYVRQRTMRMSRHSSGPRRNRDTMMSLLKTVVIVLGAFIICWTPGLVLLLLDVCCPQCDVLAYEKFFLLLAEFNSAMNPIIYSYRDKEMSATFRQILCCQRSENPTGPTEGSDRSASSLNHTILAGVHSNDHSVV
T2 sequence (Q9HBW0 whole entry): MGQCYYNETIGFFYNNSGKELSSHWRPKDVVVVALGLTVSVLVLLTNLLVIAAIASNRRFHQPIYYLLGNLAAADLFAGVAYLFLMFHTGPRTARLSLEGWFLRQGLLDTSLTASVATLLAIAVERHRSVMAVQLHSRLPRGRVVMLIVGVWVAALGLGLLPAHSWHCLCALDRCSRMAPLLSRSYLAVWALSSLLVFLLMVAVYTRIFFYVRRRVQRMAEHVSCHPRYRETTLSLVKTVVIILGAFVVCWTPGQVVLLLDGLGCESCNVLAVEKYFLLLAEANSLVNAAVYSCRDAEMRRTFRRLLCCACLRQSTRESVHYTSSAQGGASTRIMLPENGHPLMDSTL

Row | Emax (human LPA1; Emax = (maximal efficacy of compound/maximal efficacy of LPA 18:1) × 100) [%] | EC50 (human LPA1) [nM] | IC50 (human LPA1) [nM] | EC50 (human LPA2) [nM] | IC50 (human LPA2; [1]) [nM] | Ki (human LPA2; antagonist mode vs 10 nM LPA) [nM] | IC50 (human LPA2; antagonist of the LPA2 receptor) [nM] | Emax (human LPA3) [%] | EC50 (human LPA3) [nM] | EC50 (human LPA4) [nM] | Emax (human LPA4; CHO, Emax = (maximal efficacy of compound/maximal efficacy of LPA 18:1) × 100) [%] | inhibition at 10 µM (recombinant ATX-HA) [%] | Ki (human LPA1) [nM] | Ki (human LPA3; antagonist mode vs 200 nM LPA, read-out: LPA3 (Ki)) [nM] | IC50 (human LPA3; read-out: LPA3 IC50) [nM] | inhibition at 30 µM (human LPA4; CHO, read-out: LPA4 inhibition of 400 nM LPA response) [%] | IC50 (human LPA4) [nM] | Ki (human LPA4; antagonist mode vs 400 nM LPA) [nM] | Inhibition (%) of autotaxin (ATX) phosphodiesterase activity (recombinant ATX-HA) [%] | PPARγ (PPRE luciferase reporter gene assay) (PPARγ) | Structure (SMILES)
1 | 63.2 | 528 | > 30000 | > 30000 | 1690 ± 85 | 845 | 1700 | 63.5 | > 2670 | 3480 ± 561 | 40.5 | 92.5 ± 2.1 | – | – | – | – | – | – | – | – | CCCCCCCC/C=C\CCCCCCCC(=O)OC[C@@H](O)CC(Cl)P(=O)(O)O (mixture of isomers) [Compound 18a, [1-Chloro-3(S)-hydroxyl-4-(oleoyloxy)butyl]-phosphonate]
2 | – | > 30000 | 2490 ± 690 | > 30000 | 855 | 428 | – | – | > 30000 | > 30000 | – | 83 ± 2.1 | 919 | 98.3 | 175 | 80 | – | – | – | – | CCCCCCCCCCCCCCCC(=O)OC[C@@H](O)CC(Cl)P(=O)(O)O (mixture of isomers) [Compound 18b, [1-Chloro-3(S)-hydroxyl-4-(palmitoyloxy)butyl]-phosphonate]
3 | – | > 30000 | 1620 ± 116 | > 30000 | 815 ± 60 | 174 | – | 44.2 | > 2470 | > 30000 | – | > 90 | 694 | – | – | – | 4000 ± 424 | 2500 | 90.7 ± 2.3 | – | CCCCCCCC/C=C\CCCCCCCC(=O)OC[C@@H](O)CC(Br)P(=O)(O)O (mixture of isomers) [Compound 19a, [1-Bromo-3(S)-hydroxyl-4-(oleoyloxy)butyl]-phosphonate]
4 | – | – | – | – | – | – | – | – | – | – | – | – | – | – | – | – | – | – | 78.5 ± 2.3 | – | CCCCCC/C=C\CCCCCCCC(=O)OCC1COP(=O)(O)C1 (stereo not drawn) [2ccPA (16:1), 2-carba cyclic phosphatidic acid 16:1, reference compound]
5 | – | > 30000 | > 30000 | > 30000 | – | – | – | – | > 30000 | > 30000 | – | – | – | – | – | – | – | – | 56.6 | – | CCCCCCCCCCCCCCCC(=O)OCC(O)CC(O)P(=O)([O-])O.[Na+] (stereo not drawn) [Compound 24a, reference compound]
6 | – | > 30000 | > 30000 | > 30000 | – | – | – | – | > 30000 | > 30000 | – | – | – | – | – | – | – | – | 43.4 | – | CCCCCCCCCCCCCCCC(=O)OCC(O)CC(O)P(=O)([O-])O.[Na+] (stereo not drawn) [Compound 24b, reference compound]
7 | – | 100 ± 13.2 | > 30000 | – | – | – | – | – | – | – | – | – | – | – | – | – | – | – | 88.4 ± 1.3 | Ago- | CCCCCCCC/C=C\CCCCCCCC(=O)OC[C@@H](O)COP(=O)(O)O [LPA (18:1), reference compound]
